Assay results from ChEMBL document CHEMBL5543174, “A Nonbactericidal Anionic Antimicrobial Peptide Provides Prophylactic and Therapeutic Efficacies against Bacterial Infections in Mice by Immunomodulatory-Antithrombotic Duality” (J Med Chem, 2024).
Calls of active or inactive are those of the source.

Key:
[1] = test system: Peritoneal macrophage; assay: Immunoregulatory activity in mouse Peritoneal macrophage assessed as change in total p38 expression at 25 to 100 ug/ml incubated for 1 hr by Western blotting analysis; type: functional, cell-based; settings: dose 25-100 µg/ml
[2] = test system: Escherichia coli; assay: Antibacterial activity against Carbapenem-resistant Escherichia coli infected in C57BL/6 mouse assessed as increase in survival rate at 10 mg/kg,ip administrated 5 hrs after bacterial infection measured after 7 days; type: functional, organism-based; settings: time 7.0 day
[3] = test system: Staphylococcus aureus; assay: Antibacterial activity against Staphylococcus aureus ATCC 25923 infected in C57BL/6 mouse assessed as reduction in TNF-alpha level in serum at 10 mg/kg,ip pre-administrated 5 hrs before bacterial infection measured after 24 hrs by ELISA; type: functional, organism-based; settings: time 29.0 hrs
[4] = test system: Peritoneal macrophage; assay: Induction of chemotaxis in mouse Peritoneal macrophage assessed as upregulation of CXCL2 production at 100 ug/ml preincubated with MTS510 followed by compound addition by ELISA; type: functional, cell-based; settings: dose 100.0 µg/ml
[5] = test system: Peritoneal macrophage cell; assay: Induction of chemotaxis in mouse Peritoneal macrophage assessed as upregulation of CXCL2 production at 100 ug/ml preincubated with KN-62 followed by compound addition by ELISA; type: functional, cell-based; settings: dose 100.0 µg/ml
[6] = test system: Staphylococcus aureus; assay: Antibacterial activity against Methicillin-resistant Staphylococcus aureus infected in C57BL/6 mouse assessed as reduction in bacterial load at 10 mg/kg,ip administrated 5 hrs after bacterial infection; type: functional, organism-based
[7] = test system: Staphylococcus aureus; assay: Antibacterial activity against Staphylococcus aureus ATCC 25923 infected in C57BL/6 mouse assessed as reduction in IL-6 level in serum at 10 mg/kg,ip pre-administrated 5 hrs before bacterial infection measured after 24 hrs by ELISA; type: functional, organism-based; settings: time 29.0 hrs
[8] = test system: Escherichia coli; assay: Antimicrobial activity against Escherichia coli ATCC 25922 assessed as reduction in metabolic activity at < 200 ug/ml incubated for 1 to 4 hrs by CCK-8 assay; type: functional, organism-based; settings: dose < 200.0 µg/ml, time 1-4 hrs
[9] = test system: Neutrophil; assay: Induction of chemotaxis in mouse bone marrow derived neutrophil assessed as increase in neutrophil migration at 100 ug/ml preincubated with WRW4 for 30 mins followed by compound addition measured after 8 hrs by crystal violet staining based indirect transwell assay; type: functional, cell-based; settings: dose 100.0 µg/ml
[10] = test system: Peritoneal macrophage cell; assay: Induction of chemotaxis in mouse Peritoneal macrophage assessed as increase in macrophage migration at 100 ug/ml preincubated with PTX for 30 mins followed by compound addition measured after 8 hrs by crystal violet staining based indirect transwell assay; type: functional, cell-based; settings: dose 100.0 µg/ml
[11] = test system: Escherichia coli; assay: Antibacterial activity against Escherichia coli ATCC 25922 infected in C57BL/6 mouse assessed as reduction in bacterial load at 10 mg/kg,ip administrated 5 hrs after bacterial infection; type: functional, organism-based
[12] = test system: Mus musculus; assay: Anticoagulation activity in mouse infected with Carbapenem-resistant Escherichia coli assessed as increase in plasma TFPI expression at 10 mg/kg,ip administrated 5 hrs after bacterial infection measured after 24 hrs by ELISA; type: functional, organism-based; settings: time 19.0 hrs
[13] = test system: Alcaligenes faecalis; assay: Antimicrobial activity against Alcaligenes faecalis ATCC 8750 assessed as inhibition of microbial growth at <= 200 ug/ml incubated for 18 hrs by micro-broth dilution method; type: functional, organism-based; settings: dose <= 200.0 µg/ml
[14] = test system: Mus musculus; assay: Anticoagulation activity in mouse infected with Carbapenem-resistant Escherichia coli assessed as increase in plasma APC expression at 10 mg/kg,ip administrated 5 hrs after bacterial infection measured after 24 hrs by ELISA; type: functional, organism-based; settings: time 19.0 hrs
[15] = test system: Staphylococcus aureus; assay: Antibacterial activity against Staphylococcus aureus ATCC 25923 infected in C57BL/6 mouse assessed as reduction in IL-6 level in serum at 10 mg/kg,ip administrated 5 hrs after bacterial infection measured after 24 hrs by ELISA; type: functional, organism-based; settings: time 19.0 hrs
[16] = test system: Staphylococcus aureus; assay: Antibacterial activity against Staphylococcus aureus ATCC 25923 infected in C57BL/6 mouse assessed as reduction in TNF-alpha level in peritoneal fluid at 10 mg/kg,ip pre-administrated 5 hrs before bacterial infection measured after 24 hrs by ELISA; type: functional, organism-based; settings: time 29.0 hrs
[17] = test system: Escherichia coli; assay: Antibacterial activity against Carbapenem-resistant Escherichia coli infected in C57BL/6 mouse assessed as reduction in TNF-alpha level in serum at 10 mg/kg,ip administrated 5 hrs after bacterial infection measured after 24 hrs by ELISA; type: functional, organism-based; settings: time 19.0 hrs
[18] = test system: Escherichia coli; assay: Antibacterial activity against Carbapenem-resistant Escherichia coli infected in C57BL/6 mouse assessed as reduction in IL-6 level in peritoneal fluid at 10 mg/kg,ip pre-administrated 5 hrs before bacterial infection measured after 24 hrs by ELISA; type: functional, organism-based; settings: time 29.0 hrs
[19] = test system: Escherichia coli; assay: Antibacterial activity against Escherichia coli ATCC 25922 infected in C57BL/6 mouse assessed as reduction in IL-6 level in serum at 10 mg/kg,ip administrated 5 hrs after bacterial infection measured after 24 hrs by ELISA; type: functional, organism-based; settings: time 19.0 hrs
[20] = test system: Peritoneal macrophage; assay: Induction of chemotaxis in mouse Peritoneal macrophage assessed as upregulation of CXCL2 gene expression incubated for 6 hrs by qPCR analysis; type: functional, cell-based
[21] = test system: Staphylococcus aureus; assay: Antibacterial activity against Staphylococcus aureus ATCC 25923 infected in C57BL/6 mouse assessed as reduction in TNF-alpha level in peritoneal fluid at 10 mg/kg,ip administrated 5 hrs after bacterial infection measured after 24 hrs by ELISA; type: functional, organism-based; settings: time 19.0 hrs
[22] = test system: Staphylococcus aureus; assay: Antibacterial activity against Staphylococcus aureus ATCC 25923 infected in C57BL/6 mouse assessed as reduction in inflammatory injury in lung at 10 mg/kg,ip administrated 5 hrs after bacterial infection measured after 24 hrs by hematoxylin and eosin staining based analysis; type: functional, organism-based; settings: time 19.0 hrs
[23] = test system: Mus musculus; assay: Immunomodulatory activity in clodronate liposome immunosuppressed C57BL/6 mouse with neutrophil depletion model assessed as change in T-lymphocytes in peritoneal lavage at 10 mg/kg,ip administration measured after 5 to 24 hrs by flow cytometry; type: functional, organism-based; settings: time 5-24 hrs
[24] = test system: Peritoneal macrophage; assay: Induction of chemotaxis in mouse Peritoneal macrophage assessed as upregulation of IL-6 expression at 25 to 100 ug/ml incubated for 6 hrs by ELISA; type: functional, cell-based; settings: dose 25-100 µg/ml
[25] = test system: Escherichia coli; assay: Antibacterial activity against Escherichia coli ATCC 25922 infected in C57BL/6 mouse assessed as reduction in IL-1beta level in serum at 10 mg/kg,ip pre-administrated 5 hrs before bacterial infection measured after 24 hrs by ELISA; type: functional, organism-based; settings: time 29.0 hrs
[26] = test system: Staphylococcus aureus; assay: Antibacterial activity against Methicillin-resistant Staphylococcus aureus infected in C57BL/6 mouse assessed as increase in survival rate at 10 mg/kg,ip administrated 5 hrs after bacterial infection measured after 7 days; type: functional, organism-based; settings: time 7.0 day
[27] = test system: Escherichia coli; assay: Antibacterial activity against Carbapenem-resistant Escherichia coli infected in C57BL/6 mouse assessed as reduction in bacterial load at 10 mg/kg,ip pre-administrated 5 hrs before bacterial infection; type: functional, organism-based
[28] = test system: Staphylococcus aureus; assay: Antimicrobial activity against Methicillin-resistant Staphylococcus aureus assessed as inhibition of microbial growth at <= 200 ug/ml incubated for 18 hrs by micro-broth dilution method; type: functional, organism-based; settings: dose <= 200.0 µg/ml
[29] = test system: Staphylococcus aureus; assay: Antibacterial activity against Methicillin-resistant Staphylococcus aureus infected in C57BL/6 mouse assessed as reduction in IL-1beta level in peritoneal fluid at 10 mg/kg,ip pre-administrated 5 hrs before bacterial infection measured after 24 hrs by ELISA; type: functional, organism-based; settings: time 29.0 hrs
[30] = test system: Neutrophil; assay: Induction of chemotaxis in mouse bone marrow derived neutrophil assessed as increase in neutrophil migration at 100 ug/ml preincubated with MTS510 for 30 mins followed by compound addition measured after 8 hrs by crystal violet staining based indirect transwell assay; type: functional, cell-based; settings: dose 100.0 µg/ml

Measured: Activity

CC[C@H](C)[C@H](NC(=O)[C@@H]1CSSC[C@H](NC(=O)[C@H](CCC(=O)O)NC(=O)[C@@H](NC(=O)[C@H](CCCCN)NC(=O)[C@H](Cc2c[nH]cn2)NC(=O)[C@@H](NC(=O)[C@H](CCCCN)NC(=O)[C@H](CCC(=O)O)NC(=O)[C@H](C)NC(=O)[C@H](CCC(=O)O)NC(=O)[C@H](CCC(=O)O)NC(=O)[C@H](CCC(=O)O)NC(=O)[C@H](C)N)[C@@H](C)O)[C@@H](C)O)C(=O)N[C@@H](CC(C)C)C(=O)N[C@@H](CCC(=O)O)C(=O)N1)C(=O)N[C@@H](Cc1ccccc1)C(=O)N[C@H](C(=O)N[C@@H](CC(C)C)C(=O)N[C@@H](CC(C)C)C(=O)N1CCC[C@H]1C(=O)N1CCC[C@@H]1C(=O)N[C@H](C)C(=O)O)[C@@H](C)O
inactive: [1] | [8] | [10] | [13] | [23] | [24] | [28]
active: [2] | [3] | [4] | [5] | [6] | [7] | [9] | [11] | [12] | [14] | [15] | [16] | [17] | [18] | [19] | [20] Dose-Dependent Effect | [21] | [22] | [25] | [26] | [27] | [29] | [30]
